Measured values taken from patent US6572865B1, “Mycobacterium tuberculosis DNA sequences encoding immunostimulatory peptides and methods for using same” (priority 1995, dated 2003).
Read-outs that look alike come from different tables or passages of the source.

Columns and labels:
[1] = test system: T-cells from tuberculin-positive people; type: cell-based, human
immune T-cells = type: cell-based, mice; conditions: Table 2; background subtracted; up to ten μg fusion peptide
[2] = 5×10^5 mononuclear cells, up to 1 μg/mL peptide or up to 50 ng/mL PhoA fusion protein
[3] = up to 1 μg/mL peptide or up to 50 ng/mL PhoA fusion protein, background 103.3

SRFVGDVFGAPLAMESL [CD-2/1/96/11, synthetic peptide from AciI#2-827]
Concentration of INF-γ [1, 2]: 141.6 pg/mL | Concentration of INF-γ minus background [1, 3]: 38.3 pg/mL

YDAYFTDAGGITPGNSV [HPI1-3/3, synthetic peptide from HinP#1-3]
Concentration of INF-γ [1, 2]: 264.2 pg/mL | Concentration of INF-γ minus background [1, 3]: 160.9 pg/mL

PhoA control: PhoA protein employed as a negative control [reference compound]
Concentration of INF-γ ([1]; control at 10 μg/mL): 26.7 pg/mL | Concentration of INF-γ minus background ([1]; control at 10 μg/mL): 0 pg/mL

VTDNPAWYRLTKFFGKL [CD-2/1/96/1, synthetic peptide from AciI#2-827]
Concentration of INF-γ [1, 2]: 256.6 pg/mL | Concentration of INF-γ minus background [1, 3]: 153.3 pg/mL

GRAELSSIVVLLTNNTA [CD-2/1/96/14, synthetic peptide from AciI#2-827]
Concentration of INF-γ [1, 2]: 310.2 pg/mL | Concentration of INF-γ minus background [1, 3]: 206.9 pg/mL

EYSRFVGDVFGAPLAME [CD-2/1/96/10, synthetic peptide from AciI#2-827]
Concentration of INF-γ [1, 2]: 134.0 pg/mL | Concentration of INF-γ minus background [1, 3]: 30.7 pg/mL

WSEYSRFVGDVFGAPLA [CD-2/1/96/9, synthetic peptide from AciI#2-827]
Concentration of INF-γ [1, 2]: 187.6 pg/mL | Concentration of INF-γ minus background [1, 3]: 84.3 pg/mL

GKTYDAYFTDAGGITPG [HPI1-3/2, synthetic peptide from HinP#1-3]
Concentration of INF-γ [1, 2]: 136.3 pg/mL | Concentration of INF-γ minus background [1, 3]: 23.0 pg/mL

B1: AciI#2-874: AP-fusion clone; SEQ ID NO: 73; MTCY190.20 (protein)
chain: VMPSSIGLVVGSMLWRQINRLFGVRGLCWAAHCSTPLCAAVHGGRVVWAVGSRLGVLHGVPAGYGGRSNGGRRIDIVDQRPRAR
notes: AP-fusion clone; MTCY190.20
INF: pg/mL of INF-γ produced using fusion to stimulate immune T-cells (immune T-cells): 2,171 pg/mL

B2: AciI#3-243: AP-fusion clone; SEQ ID NO: 112; MTCY50.02 (protein)
chain: AGGCGACGGTTGGCACCACCACGAGTGAGTCAGGCAGGAGCCCCGCCACGTTGCGGACGGCGCGAATCTTCGCCTGTGGCTCACCGACTTTCCGCCCAACTTCAACGATCTTGCACATGGACGGCAAGAACGCCGAGGTCGCG
notes: AP-fusion clone; MTCY50.02
INF: pg/mL of INF-γ produced using fusion to stimulate immune T-cells (immune T-cells): 2,857 pg/mL
